Experimental data published in US20100029554A1, “Composition and Methods for Treatment of Congestive Heart Failure” (Amylin Pharmaceuticals, Inc., priority 2006, published 2010).
Where a SMILES comes first, the peptide text is derived from it. Where no end group is shown, it is not given here. [ ]: non-standard residue; d: D form. Gly(octyl) = CCCCCCCC[C@H](N)C(=O)O

T1: GLP-1 receptor, endogenous in RINm5f cells (rat (RIN-m5F are called rat pancreas …, UniProt P32301 22-463))
T1 sequence (looked up): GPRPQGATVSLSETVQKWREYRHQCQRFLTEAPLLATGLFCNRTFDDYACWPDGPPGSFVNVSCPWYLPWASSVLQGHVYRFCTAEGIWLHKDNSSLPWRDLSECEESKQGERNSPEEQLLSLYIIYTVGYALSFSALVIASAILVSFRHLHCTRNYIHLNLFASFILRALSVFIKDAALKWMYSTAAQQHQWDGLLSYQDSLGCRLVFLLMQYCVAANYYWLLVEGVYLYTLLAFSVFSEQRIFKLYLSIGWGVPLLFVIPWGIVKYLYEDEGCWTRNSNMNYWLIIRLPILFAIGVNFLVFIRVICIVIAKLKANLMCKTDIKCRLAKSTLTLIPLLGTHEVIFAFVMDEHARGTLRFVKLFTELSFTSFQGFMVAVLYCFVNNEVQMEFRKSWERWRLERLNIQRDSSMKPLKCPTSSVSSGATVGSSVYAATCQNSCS

B1: Cmpd 5268 (peptide)
peptide: HGEGTFTSDLSKQAEEEAVRLFIEWLKNGKPKK[Gly(octyl)]RYS-OH
modifications: N-terminus assumed
SMILES: CCCCCCCC[C@H](NC(=O)[C@H](CCCCN)NC(=O)[C@H](CCCCN)NC(=O)[C@@H]1CCCN1C(=O)[C@H](CCCCN)NC(=O)CNC(=O)[C@H](CC(N)=O)NC(=O)[C@H](CCCCN)NC(=O)[C@H](CC(C)C)NC(=O)[C@H](Cc1c[nH]c2ccccc12)NC(=O)[C@H](CCC(=O)O)NC(=O)[C@@H](NC(=O)[C@H](Cc1ccccc1)NC(=O)[C@H](CC(C)C)NC(=O)[C@H](CCCNC(=N)N)NC(=O)[C@@H](NC(=O)[C@H](C)NC(=O)[C@H](CCC(=O)O)NC(=O)[C@H](CCC(=O)O)NC(=O)[C@H](CCC(=O)O)NC(=O)[C@H](C)NC(=O)[C@H](CCC(N)=O)NC(=O)[C@H](CCCCN)NC(=O)[C@H](CO)NC(=O)[C@H](CC(C)C)NC(=O)[C@H](CC(=O)O)NC(=O)[C@H](CO)NC(=O)[C@@H](NC(=O)[C@H](Cc1ccccc1)NC(=O)[C@@H](NC(=O)CNC(=O)[C@H](CCC(=O)O)NC(=O)CNC(=O)[C@@H](N)Cc1c[nH]cn1)[C@@H](C)O)[C@@H](C)O)C(C)C)[C@@H](C)CC)C(=O)N[C@@H](CCCNC(=N)N)C(=O)N[C@@H](Cc1ccc(O)cc1)C(=O)N[C@@H](CO)C(=O)O
notes: tested as C-terminal acid (-OH)

Key:
[1] = test system: NH/Swiss mice; assay: Glucose lowering assay; assay type: in vivo, mouse; details: IP, 2 nmol/kg, change in blood glucose relative to vehicle
Description: Female NH/Swiss mice (˜8-20 weeks of age), (Harlan, Indianapolis, Ind., USA), housed 3 mice per cage, are allowed ad libitum access to food and water until the start of the experiment. At two hours prior to treatment, access to food is restricted.
At the time of treatment, the tip of the tail is pricked with a needle to obtain 1 μl blood as a “pre-treatment” control blood sample. Immediately thereafter, each mouse is injected intraperitoneally (IP) with a test sample (1 nmol/kg or 2 nmol/kg) or 200 μl vehicle (10% DMSO saline). Additional blood samples are collected at 30, 60, 120, 180, and 240 minutes after injection.
Blood glucose is measured with a glucose oxidase biosensor (OneTouch® Ultra® (LifeScan, Inc., a Johnson & Johnson Company, Milpitas, Calif.)). At each time point, the effect of the test sample is expressed as the percent change in blood glucose relative to mice injected with vehicle only. Test samples and vehicle controls are also compared to their respective “pre-treatment” controls.
Significant test sample effects are identified by ANOVA (p<0.05). Where a significant difference existed, test means are compared to the control mean with Dunnett's post test using GraphPad Prism version 4.00 for Windows, GraphPad Software, San Diego Calif. USA, www.graphpad.com).

[2] = Plasma stability; assay type: in vitro ADME; details: 20 μg/mL in plasma, 37° C., 0-5 hours
Description: To assess stability, the compound of interest is spiked into plasma at a concentration of 20 μg/mL. It is incubated at 37° C. for 0, 1, 2 3, 4, 5 hours in triplicate. At each time point, MeOH is added to a 96 well microtiter plate and then sample is added in a ratio of 1 part sample to 4 parts MeOH to quench the digestion reaction. Samples are mixed with multi-channel pipette or liquid handler. The plate is then centrifuged for 10 minutes and placed in an autosampler kept at 10° C. Samples are then injected into a mass spectrometer (API 3000, Applied Biosystems) equipped with an autosampler (Leap HTC Pal) and HPLC pumps (Shimadzu LC-10ADVP).

[3] = test system: GLP/GIP/CT cyclase, RIN-m5F cells; assay: GLP/GIP/CT Cyclase (RIN) assay; assay type: cell-based, rat; details: cAMP, values without **
Description: GLP/GIP/CT Cyclase (RIN) Assay
Five μl of serially diluted peptides are transferred to the 384-well assay plate. Rat pancreas insulinoma cells (RIN-m5F) are detached from a tissue culture flask with Versene and washed once in buffer. Then RIN-m5F cells are resusupended in buffer at 2.5×10^6 cells/ml. Then 10 μl cells (2.5×10^4 cells) are added to all wells of the assay plate and cells are stimulated at room temperature in the dark for 30 minutes. The reaction is terminated with 10 μl of lysis buffer and incubated at room temperature for 4 hrs in the dark. cAMP content is measured using Perkin Elmer AlphaScreen™ cAMP assay kit and results are read on a Perkin Elmer Fusion fluorometer. The assay is completed in 384-well plates at 25 microliter volumes.

[4] = molecular target: T1, GLP-1 receptor, endogenous in RINm5f …; assay: cell-based or functional assay
[5] = molecular target: T1, GLP-1 receptor, endogenous in RINm5f …; assay: 125I-GLP-1 displacement, RINm5f membranes

| Molecule | GLU LOWERING AUC240 @2 nmol/kg [1] [%] | plasma stability as compared to native GLP-1 [2] | EC50 [3] [nM] | plasma stability as compared to native GLP-1 ([2]; second, narrower list of b152) | cAMP, CYCLASE GLP/GIP/CT (RIN) EC50 [4] [nM] | IC50 [5] [nM] |
| --- | --- | --- | --- | --- | --- | --- |
| CC[C@H](C)[C@H](NC(=O)[C@H](Cc1ccccc1)NC(=O)[C@H](CC(C)C)NC(=O)[C@H](CCCNC(=N)N)NC(=O)[C@@H](NC(=O)[C@H](C)NC(=O)[C@H](CCC(=O)O)NC(=O)[C@H](CCC(=O)O)NC(=O)[C@H](CCC(=O)O)NC(=O)[C@H](CC(C)C)NC(=O)[C@H](Cc1ccc(O)cc1)NC(=O)[C@H](CCC(=O)O)NC(=O)[C@@H](NC(=O)[C@@H](NC(=O)[C@H](CC(=O)O)NC(=O)[C@H](CC(N)=O)NC(=O)[C@@H](NC(=O)[C@H](Cc1ccc(O)cc1)NC(=O)[C@@H](NC(=O)CNC(=O)[C@H](CCC(=O)O)NC(=O)CNC(=O)[C@@H](N)Cc1c[nH]cn1)[C@@H](C)O)[C@@H](C)O)C(C)C)[C@@H](C)O)C(C)C)C(=O)N[C@@H](CCC(=O)O)C(=O)N[C@@H](Cc1c[nH]c2ccccc12)C(=O)N[C@@H](CC(C)C)C(=O)N[C@@H](CCCCN)C(=O)N[C@@H](CC(N)=O)C(=O)NCC(=O)NCC(=O)N1CCC[C@H]1C(=O)N[C@@H](CO)C(=O)N[C@@H](CO)C(=O)NCC(=O)N[C@@H](C)C(=O)N1CCC[C@H]1C(=O)N1CCC[C@H]1C(=O)N1CCC[C@H]1C(=O)N[C@@H](CO)C(N)=O [Cmpd 5271] | −17 | increased plasma stability |  |  |  |  |
| CCCCCCCC[C@H](NC(=O)[C@H](CCCCN)NC(=O)[C@H](CCCCN)NC(=O)[C@@H]1CCCN1C(=O)[C@H](CCCCN)NC(=O)CNC(=O)[C@H](CC(N)=O)NC(=O)[C@H](CCCCN)NC(=O)[C@H](CC(C)C)NC(=O)[C@H](Cc1ccccc1)NC(=O)[C@H](CCC(=O)O)NC(=O)[C@@H](NC(=O)[C@H](Cc1ccccc1)NC(=O)[C@H](CC(C)C)NC(=O)[C@H](CCCNC(=N)N)NC(=O)[C@@H](NC(=O)[C@H](C)NC(=O)[C@H](CCC(=O)O)NC(=O)[C@H](CCC(=O)O)NC(=O)[C@H](CCC(=O)O)NC(=O)[C@H](CC(C)C)NC(=O)[C@H](CCC(N)=O)NC(=O)[C@H](CCCCN)NC(=O)[C@H](CO)NC(=O)[C@H](CC(C)C)NC(=O)[C@H](CC(=O)O)NC(=O)[C@H](CO)NC(=O)[C@@H](NC(=O)[C@H](Cc1ccccc1)NC(=O)[C@@H](NC(=O)CNC(=O)[C@H](CCC(=O)O)NC(=O)CNC(=O)[C@@H](N)Cc1c[nH]cn1)[C@@H](C)O)[C@@H](C)O)C(C)C)[C@@H](C)CC)C(=O)N[C@@H](CCCNC(=N)N)C(=O)N[C@@H](Cc1ccc(O)cc1)C(=O)N[C@@H](CO)C(=O)O [Cmpd 5269] | −14 |  | 1.31 |  |  |  |
| HGEGTFTSDLSKQLEEKAAKEFIEWLIQGGPSKEIIS-OH [Cmpd 5101] | −10 | increased plasma stability | 0.863 | increased plasma stability |  |  |
| CCCCCCCC[C@H](NC(=O)[C@H](CCCCN)NC(=O)[C@H](CCCCN)NC(=O)[C@@H]1CCCN1C(=O)[C@H](CCCCN)NC(=O)CNC(=O)[C@H](CC(N)=O)NC(=O)[C@H](CCCCN)NC(=O)[C@H](CC(C)C)NC(=O)[C@H](Cc1c[nH]c2ccccc12)NC(=O)[C@H](CCC(=O)O)NC(=O)[C@@H](NC(=O)[C@H](Cc1ccccc1)NC(=O)[C@H](CC(C)C)NC(=O)[C@H](CCCNC(=N)N)NC(=O)[C@@H](NC(=O)[C@H](C)NC(=O)[C@H](CCC(=O)O)NC(=O)[C@H](CCC(=O)O)NC(=O)[C@H](CCC(=O)O)NC(=O)[C@H](C)NC(=O)[C@H](CCC(N)=O)NC(=O)[C@H](CCCCN)NC(=O)[C@H](CO)NC(=O)[C@H](CC(C)C)NC(=O)[C@H](CC(=O)O)NC(=O)[C@H](CO)NC(=O)[C@@H](NC(=O)[C@H](Cc1ccccc1)NC(=O)[C@@H](NC(=O)CNC(=O)[C@H](CCC(=O)O)NC(=O)CNC(=O)[C@@H](N)Cc1c[nH]cn1)[C@@H](C)O)[C@@H](C)O)C(C)C)[C@@H](C)CC)C(=O)N[C@@H](CCCNC(=N)N)C(=O)N[C@@H](Cc1ccc(O)cc1)C(=O)N[C@@H](CO)C(=O)O [Cmpd 5268] (H-HGEGTFTSDLSKQAEEEAVRLFIEWLKNGKPKK[Gly(octyl)]RYS-OH; N-terminus assumed) | −8 |  | 0.489 |  |  |  |
| CC[C@H](C)[C@H](NC(=O)[C@H](Cc1ccccc1)NC(=O)[C@H](CC(C)C)NC(=O)[C@H](CCCNC(=N)N)NC(=O)[C@H](C)NC(=O)[C@H](C)NC(=O)[C@H](CCC(=O)O)NC(=O)[C@H](CCC(=O)O)NC(=O)[C@H](CCC(=O)O)NC(=O)[C@H](CC(C)C)NC(=O)[C@H](Cc1ccc(O)cc1)NC(=O)[C@H](CO)NC(=O)[C@H](CO)NC(=O)[C@@H](NC(=O)[C@H](CC(=O)O)NC(=O)[C@H](CC(N)=O)NC(=O)[C@@H](NC(=O)[C@H](Cc1ccc(O)cc1)NC(=O)[C@@H](NC(=O)CNC(=O)[C@H](CCC(=O)O)NC(=O)CNC(=O)[C@@H](N)Cc1c[nH]cn1)[C@@H](C)O)[C@@H](C)O)C(C)C)C(=O)N[C@@H](CCC(=O)O)C(=O)N[C@@H](Cc1c[nH]c2ccccc12)C(=O)N[C@@H](CC(C)C)C(=O)N[C@@H](CCCCN)C(=O)N[C@@H](CCC(N)=O)C(=O)NCC(=O)NCC(=O)N1CCC[C@H]1C(=O)N[C@@H](CO)C(=O)N[C@@H](CO)C(=O)NCC(=O)N[C@@H](C)C(=O)N1CCC[C@H]1C(=O)N1CCC[C@H]1C(=O)N1CCC[C@H]1C(=O)N[C@@H](CO)C(N)=O [Cmpd 5182] | −16 | increased plasma stability |  | increased plasma stability |  |  |
| HGEGTFTSDLVKILEAEAVRKFIEFLKN-NH2 [Cmpd 5052] |  |  |  |  | 4.5 | 0.56 |
| HGEGTFTSDVTQQLEEEAVRLFIEWLKQGGPSSGAPPPS-NH2 [Cmpd 5099] |  |  |  |  | 1.29 | 5 |
| B1 |  |  |  |  | 0.489 | 0.11 |
| HGEGTYTNDVSSYLEGQAARLFIEWLQGGPSSGAPPPS-NH2 (also: table prints an unexplained underscore after L26) [Cmpd 5183] |  |  |  |  | 0.21 | 0.31 |
